Target: T1, P2X purinoceptor 7 (Homo sapiens, UniProt Q99572)
T1 sequence (Q99572 whole entry): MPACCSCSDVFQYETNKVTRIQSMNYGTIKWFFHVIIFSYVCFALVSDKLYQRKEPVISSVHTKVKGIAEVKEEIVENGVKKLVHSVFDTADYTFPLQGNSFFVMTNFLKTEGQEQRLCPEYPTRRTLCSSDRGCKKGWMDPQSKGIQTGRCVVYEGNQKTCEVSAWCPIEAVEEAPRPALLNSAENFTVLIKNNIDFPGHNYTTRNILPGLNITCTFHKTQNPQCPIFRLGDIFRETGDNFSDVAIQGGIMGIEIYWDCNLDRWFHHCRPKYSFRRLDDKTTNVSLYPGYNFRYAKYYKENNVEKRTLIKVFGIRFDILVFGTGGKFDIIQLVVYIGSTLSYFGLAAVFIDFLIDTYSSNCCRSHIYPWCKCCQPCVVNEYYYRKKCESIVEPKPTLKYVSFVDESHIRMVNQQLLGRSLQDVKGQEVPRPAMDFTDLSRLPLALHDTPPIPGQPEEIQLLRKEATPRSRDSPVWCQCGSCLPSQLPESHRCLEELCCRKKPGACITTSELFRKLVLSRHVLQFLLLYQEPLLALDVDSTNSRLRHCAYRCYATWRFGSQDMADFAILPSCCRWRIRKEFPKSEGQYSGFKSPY
Test: Pharmacological Assay: 1. […] Incubate the plate at 37° C. in 5% CO2 for 1 h.4. […] Test compounds were prepared at 100× the test concentration in DMSO by serial dilution with Biomek-FX liquid handling instrument. 33× diluted compound solutions in assay buffer were prepared in intermediate compound plate with Biomek-NX liquid handling instrument. A further 3× dilution occurred in below steps 6 and 7.6. Add 20 microL of 33× diluted compound solutions into each well and leave the plate for 10 min under the dark at room temperature.7. Measure activity by FDSS as follows:Set the assay plate on the stacker of FDSS.Start the detection of fluorescence intensity at 540 nm by 480 nm exicitation.After 30 seconds, add 20 microL of assay buffer containing 240 microM BzATP (final concentration 80 microM).

IC50 [nM] | SMILES
< 50 | NC(=O)CC1CCC(C(=O)NCc2cccc(C(F)(F)F)c2Cl)c2cccnc21 (configuration not stated)
< 50 | O=C(NCc1ccc(C(F)(F)F)cc1Cl)[C@]1(F)CC[C@H](O)c2ncccc21
